Data published in patent publication US12447153B2, “HER2 mutation inhibitors” (Array BioPharma Inc., priority 2021, dated 2025).

Tests used:
ErbB2 WT = ErbB2 WT (Homo sapiens (Human), UniProt P04626); assay: ErbB Enzyme Assay (HTRF KinEASE-TK), Assay 2; assay type: biochemical
EGFR = EGFR (Homo sapiens (Human), UniProt P00533); assay: ErbB Enzyme Assay (HTRF KinEASE-TK), Assay 3; assay type: biochemical
[1] = target: ErbB2 with Exon 20 YVMA insertion (HER2-YVMA) (Homo sapiens (Human), UniProt P04626, INS775YVMA); assay: Cellular Phosphorylation Assay, Assay 4 (constitutive ErbB2 phosphorylation, NIH 3T3 cells); assay type: cell-based
EGFR wild type (EGFR WT) = EGFR wild type (EGFR WT) (Homo sapiens (Human), UniProt P00533); assay: Cellular Phosphorylation Assay, Assay 5 (EGF-stimulated EGFR phosphorylation, NIH 3T3 cells); assay type: cell-based
BCRP = BCRP (Homo sapiens (Human), UniProt Q9UNQ0); assay: BCRP MDCKII efflux assay (Assay 7); assay type: in vitro ADME; details: dog; efflux ratio Papp(B-A)/Papp(A-B), BCRP MDCKII cells; read-out: Assay 7 Pe Ratio
Description: Assay conditions included with and without the BCRP-specific inhibitor, KO143, at a concentration of 0.3 μM to ascertain the contribution of BCRP to the efflux value of the test compound.
Final organic concentration in the assay was 1%.

[2] = cellular ErbB2 YVMA phosphorylation
[3] = cellular EGFR WT phosphorylation, EGF-stimulated
[4] = EGF-stimulated EGFR WT phosphorylation

BCRP, sequence (Q9UNQ0 whole entry): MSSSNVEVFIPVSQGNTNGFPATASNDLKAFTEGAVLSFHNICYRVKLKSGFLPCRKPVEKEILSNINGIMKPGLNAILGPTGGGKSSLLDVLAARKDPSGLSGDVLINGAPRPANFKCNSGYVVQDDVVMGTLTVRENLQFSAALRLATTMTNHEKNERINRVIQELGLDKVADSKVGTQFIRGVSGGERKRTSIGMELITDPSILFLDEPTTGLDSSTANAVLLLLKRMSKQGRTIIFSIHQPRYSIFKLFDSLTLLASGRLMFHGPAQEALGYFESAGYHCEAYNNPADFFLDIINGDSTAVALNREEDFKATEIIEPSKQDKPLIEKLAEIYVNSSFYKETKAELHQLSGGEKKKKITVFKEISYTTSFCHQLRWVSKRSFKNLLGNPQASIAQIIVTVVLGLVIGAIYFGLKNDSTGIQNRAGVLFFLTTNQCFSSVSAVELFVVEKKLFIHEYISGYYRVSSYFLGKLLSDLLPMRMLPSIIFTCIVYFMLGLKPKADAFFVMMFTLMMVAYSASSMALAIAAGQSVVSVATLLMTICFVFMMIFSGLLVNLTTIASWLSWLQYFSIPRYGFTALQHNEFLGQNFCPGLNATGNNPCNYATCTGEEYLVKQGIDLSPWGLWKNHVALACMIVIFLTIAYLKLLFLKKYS
ErbB2 WT, sequence (P04626 23-1255): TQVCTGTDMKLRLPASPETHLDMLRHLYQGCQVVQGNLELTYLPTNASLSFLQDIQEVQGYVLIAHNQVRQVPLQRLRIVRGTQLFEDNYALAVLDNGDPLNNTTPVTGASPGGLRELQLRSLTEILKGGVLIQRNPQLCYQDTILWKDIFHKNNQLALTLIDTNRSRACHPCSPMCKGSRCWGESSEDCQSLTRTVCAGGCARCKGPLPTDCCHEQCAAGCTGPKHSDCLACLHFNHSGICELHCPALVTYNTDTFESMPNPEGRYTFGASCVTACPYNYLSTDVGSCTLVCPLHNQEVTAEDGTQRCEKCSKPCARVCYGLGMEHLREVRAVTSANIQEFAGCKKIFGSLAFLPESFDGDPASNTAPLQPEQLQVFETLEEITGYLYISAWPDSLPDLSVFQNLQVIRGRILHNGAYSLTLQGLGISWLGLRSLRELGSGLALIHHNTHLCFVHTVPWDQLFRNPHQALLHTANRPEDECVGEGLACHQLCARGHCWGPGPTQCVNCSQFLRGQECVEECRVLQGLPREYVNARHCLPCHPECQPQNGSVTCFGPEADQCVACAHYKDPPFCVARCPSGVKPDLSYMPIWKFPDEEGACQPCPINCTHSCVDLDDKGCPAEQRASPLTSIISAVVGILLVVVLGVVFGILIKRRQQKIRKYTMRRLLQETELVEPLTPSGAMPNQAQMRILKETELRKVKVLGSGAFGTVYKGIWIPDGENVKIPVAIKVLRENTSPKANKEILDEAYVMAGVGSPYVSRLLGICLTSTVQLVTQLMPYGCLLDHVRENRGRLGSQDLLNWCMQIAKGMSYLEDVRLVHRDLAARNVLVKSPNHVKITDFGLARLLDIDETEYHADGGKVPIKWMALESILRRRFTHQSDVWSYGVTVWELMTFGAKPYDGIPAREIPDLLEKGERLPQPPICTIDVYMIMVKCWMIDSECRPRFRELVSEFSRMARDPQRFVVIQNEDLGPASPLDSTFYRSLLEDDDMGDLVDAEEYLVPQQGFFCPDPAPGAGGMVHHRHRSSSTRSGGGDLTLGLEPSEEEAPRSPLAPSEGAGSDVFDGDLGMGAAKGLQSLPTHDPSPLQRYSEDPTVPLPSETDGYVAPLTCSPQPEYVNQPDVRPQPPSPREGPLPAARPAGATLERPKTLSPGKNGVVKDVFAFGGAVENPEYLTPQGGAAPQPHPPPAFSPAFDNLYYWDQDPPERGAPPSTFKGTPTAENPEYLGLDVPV
ErbB2 with Exon 20 YVMA insertion (HER2-YVMA), sequence (P04626 other isoform, or with tags, fused parts or gaps ins YVMA behind 775): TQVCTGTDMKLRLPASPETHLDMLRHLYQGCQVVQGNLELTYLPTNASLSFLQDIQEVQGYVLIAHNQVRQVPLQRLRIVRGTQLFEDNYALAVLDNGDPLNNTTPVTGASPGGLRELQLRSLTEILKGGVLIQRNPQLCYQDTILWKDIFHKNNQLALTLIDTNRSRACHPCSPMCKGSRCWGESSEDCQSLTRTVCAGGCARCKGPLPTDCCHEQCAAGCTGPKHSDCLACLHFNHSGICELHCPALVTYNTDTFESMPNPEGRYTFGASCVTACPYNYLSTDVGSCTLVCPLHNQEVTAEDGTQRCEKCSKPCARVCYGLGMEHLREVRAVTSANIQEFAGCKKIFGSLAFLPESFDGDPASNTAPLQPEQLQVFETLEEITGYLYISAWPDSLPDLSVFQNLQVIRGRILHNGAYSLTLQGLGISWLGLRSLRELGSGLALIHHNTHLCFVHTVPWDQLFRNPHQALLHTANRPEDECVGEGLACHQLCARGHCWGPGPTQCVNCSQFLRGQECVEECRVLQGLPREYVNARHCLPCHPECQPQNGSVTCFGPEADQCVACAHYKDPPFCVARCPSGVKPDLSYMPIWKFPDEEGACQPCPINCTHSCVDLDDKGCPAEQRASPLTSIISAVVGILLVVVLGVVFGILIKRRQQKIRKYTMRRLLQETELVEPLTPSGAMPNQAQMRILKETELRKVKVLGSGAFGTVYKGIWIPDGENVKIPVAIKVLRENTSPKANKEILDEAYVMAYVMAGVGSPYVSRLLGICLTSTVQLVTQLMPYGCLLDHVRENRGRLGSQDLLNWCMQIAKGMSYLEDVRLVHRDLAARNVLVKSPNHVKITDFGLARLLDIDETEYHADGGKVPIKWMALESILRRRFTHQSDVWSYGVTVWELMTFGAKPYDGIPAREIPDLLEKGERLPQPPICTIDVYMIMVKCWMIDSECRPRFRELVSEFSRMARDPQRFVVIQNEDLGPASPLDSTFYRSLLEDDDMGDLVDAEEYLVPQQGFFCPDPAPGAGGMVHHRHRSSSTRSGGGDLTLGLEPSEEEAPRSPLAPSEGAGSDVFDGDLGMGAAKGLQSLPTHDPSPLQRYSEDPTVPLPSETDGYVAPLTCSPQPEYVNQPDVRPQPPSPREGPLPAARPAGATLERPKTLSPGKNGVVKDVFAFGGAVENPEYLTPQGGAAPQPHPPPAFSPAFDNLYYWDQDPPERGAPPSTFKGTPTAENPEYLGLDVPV
EGFR wild type (EGFR WT), sequence (P00533 25-1210): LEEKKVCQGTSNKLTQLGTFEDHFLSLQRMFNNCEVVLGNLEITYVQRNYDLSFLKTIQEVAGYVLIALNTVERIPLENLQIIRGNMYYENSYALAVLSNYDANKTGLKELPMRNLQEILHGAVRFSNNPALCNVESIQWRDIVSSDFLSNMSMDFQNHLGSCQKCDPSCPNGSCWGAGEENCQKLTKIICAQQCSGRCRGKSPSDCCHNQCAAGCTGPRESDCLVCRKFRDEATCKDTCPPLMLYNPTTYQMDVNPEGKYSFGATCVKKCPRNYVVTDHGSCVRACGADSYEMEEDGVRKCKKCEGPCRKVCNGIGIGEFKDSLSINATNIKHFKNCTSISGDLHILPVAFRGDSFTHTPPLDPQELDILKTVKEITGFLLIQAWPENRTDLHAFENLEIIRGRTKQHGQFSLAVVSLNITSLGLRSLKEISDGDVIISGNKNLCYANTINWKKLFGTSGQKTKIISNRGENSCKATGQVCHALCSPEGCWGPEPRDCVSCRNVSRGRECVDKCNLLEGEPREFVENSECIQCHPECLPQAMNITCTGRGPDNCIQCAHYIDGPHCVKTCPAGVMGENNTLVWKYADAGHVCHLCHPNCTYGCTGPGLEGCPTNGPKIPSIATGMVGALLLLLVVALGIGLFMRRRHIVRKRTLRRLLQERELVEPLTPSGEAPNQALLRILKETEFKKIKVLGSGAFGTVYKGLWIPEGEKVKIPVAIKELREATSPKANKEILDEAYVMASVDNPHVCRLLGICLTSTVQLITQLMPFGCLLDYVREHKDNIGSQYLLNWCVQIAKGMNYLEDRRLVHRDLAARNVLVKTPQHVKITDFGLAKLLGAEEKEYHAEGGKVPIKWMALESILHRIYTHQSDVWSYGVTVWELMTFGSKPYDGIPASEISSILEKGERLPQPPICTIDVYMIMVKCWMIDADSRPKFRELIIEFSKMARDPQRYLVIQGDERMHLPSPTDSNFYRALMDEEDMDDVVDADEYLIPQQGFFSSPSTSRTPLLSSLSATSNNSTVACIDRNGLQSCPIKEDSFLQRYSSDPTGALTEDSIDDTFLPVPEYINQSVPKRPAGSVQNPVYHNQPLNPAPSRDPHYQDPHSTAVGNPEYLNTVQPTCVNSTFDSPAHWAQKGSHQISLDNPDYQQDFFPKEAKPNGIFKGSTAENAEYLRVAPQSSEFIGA

| Structure (SMILES) | IC50 (ErbB2 WT; ErbB2 WT enzyme assay) | IC50 (EGFR; EGFR enzyme assay) | IC50 [1, 2] | IC50 (EGFR wild type (EGFR WT); [3]) | efflux ratio at 2 h, 1 µM (BCRP) | IC50 (ErbB2 WT; ErbB2 WT enzyme) | IC50 (EGFR; EGFR enzyme) | IC50 ([1]; ErbB2 YVMA phosphorylation) | IC50 (EGFR wild type (EGFR WT); [4]) |
| --- | --- | --- | --- | --- | --- | --- | --- | --- | --- |
| C=CC(=O)N1C[C@H](c2ccc3ncnc(Nc4ccc(Oc5ccn6ncnc6c5)c(C)c4F)c3n2)C[C@H]1COC (mixture of isomers) [Example 306] | 0.0592 µM | 1.93 µM | 0.0202 µM | 3.09 µM | 6.8 | – | – | – | – |
| C=CC(=O)N1CCC[C@@H](c2ccc3ncnc(Nc4ccc(Oc5ccc6c(c5)ncn6C)c(C)c4)c3n2)C1 (racemic) [Example 35, 1-(3-(4-((3-methyl-4-((1-methyl-1H-benzo[d]imidazol-5-yl)oxy)phenyl)amino)pyrido[3,2-d]pyrimidin-6-yl)piperidin-1-yl)prop-2-en-1-one] | – | – | – | – | 2.7 | 0.0062 µM | 1.4 µM | 0.0104 µM | 2.73 µM |
| C=CC(=O)N1CCC(c2ccc3ncnc(Nc4ccc(Oc5ccc6c(c5)ncn6C)c(C)c4)c3n2)C1 (racemic) [Example 120, rac-(R)-1-(3-(4-((3-methyl-4-((1-methyl-1H-benzo[d]imidazol-5-yl)oxy)phenyl)amino)pyrido[3,2-d]pyrimidin-6-yl)pyrrolidin-1-yl)prop-2-en-1-one] | – | – | – | – | 15.8 | 0.042 µM | 7.27 µM | 0.0084 µM | ≥ 5 µM |
| CC#CC(=O)N1C[C@@H]2CC[C@H]1CN2c1ccc2ncnc(Nc3ccc(Oc4ccn5ncnc5c4)c(C)c3F)c2n1 [Example 333] | 0.155 µM | – | 0.031 µM | 2.13 µM | 6.8 | – | – | – | – |
| C=CC(=O)N1C[C@H]2CC[C@@H]1[C@H](c1ccc3ncnc(Nc4ccc(Oc5ccn6ncnc6c5)c(C)c4F)c3n1)C2 [Example 397] | 0.0097 µM | 1.12 µM | 0.0492 µM | ≥ 5 µM | – | – | – | – | – |
| C=CC(=O)N1C[C@H]2CC[C@@H]1[C@@H](c1ccc3ncnc(Nc4ccc(Oc5ccn6ncnc6c5)c(C)c4F)c3n1)C2 [Example 398] | 0.0154 µM | 0.736 µM | 0.074 µM | ≥ 5 µM | – | – | – | – | – |
| C=CC(=O)N1CCCC(c2ccc3ncnc(Nc4ccc(Oc5ccn6ncnc6c5)c(Cl)c4F)c3n2)CC1 (stereo not drawn) [Example 399] | 0.0019 µM | 0.177 µM | 0.019 µM | 0.461 µM | – | – | – | – | – |
| C=CC(=O)N1CCCC(c2ccc3ncnc(Nc4cc(Cl)c(Oc5ccn6ncnc6c5)cc4F)c3n2)CC1 (stereo not drawn) [Example 400] | 0.016 µM | 3.24 µM | 0.0456 µM | ≥ 5 µM | – | – | – | – | – |
| C=CC(=O)N1C[C@H]2CC[C@H](c3ccc4ncnc(Nc5ccc(Oc6ccn7ncnc7c6)c(C)c5)c4n3)[C@H]2C1 [Example 409] | 0.0431 µM | 1.97 µM | 0.0346 µM | ≥ 5 µM | – | – | – | – | – |
| C=CC(=O)N1C[C@H]2CC[C@H](c3ccc4ncnc(Nc5cc(C)c(Oc6ccn7ncnc7c6)cc5F)c4n3)[C@H]2C1 [Example 410] | 0.12 µM | 3.67 µM | 0.0827 µM | ≥ 5 µM | – | – | – | – | – |
| C=CC(=O)N1C[C@H]2CC[C@H](c3ccc4ncnc(Nc5ccc(Oc6ccn7ncnc7c6)c(C)c5F)c4n3)[C@H]2C1 [Example 411] | 0.0449 µM | 0.598 µM | 0.0352 µM | 1.44 µM | – | – | – | – | – |
| C=CC(=O)N1[C@@H]2CCC[C@H]1[C@@H](c1ccc3ncnc(Nc4cc(C)c(Oc5ccn6ncnc6c5)cc4F)c3n1)C2 [Example 414] | 0.0301 µM | 0.866 µM | 0.0576 µM | ≥ 5 µM | – | – | – | – | – |
| C=CC(=O)N1[C@@H]2CC[C@H]1[C@H](c1ccc3ncnc(Nc4cc(C)c(Oc5cnc6c(c5)ncn6C)cc4F)c3n1)C2 [Example 417] | 0.215 µM | ≥ 10 µM | 0.0516 µM | ≥ 5 µM | – | – | – | – | – |
| C=CC(=O)N1C[C@H]2C[C@@H]1[C@H](c1ccc3ncnc(Nc4ccc(Oc5cnc6c(c5)ncn6C)c(C)c4F)c3n1)C2 [Example 418] | 0.119 µM | 5.6 µM | 0.0336 µM | ≥ 5 µM | – | – | – | – | – |
| C=CC(=O)N1C[C@H]2CC[C@@H]1C[C@H]2c1ccc2ncnc(Nc3cc(C)c(Oc4cnc5c(c4)ncn5C)cc3F)c2n1 [Example 421] | 0.217 µM | ≥ 10 µM | 0.0943 µM | ≥ 5 µM | – | – | – | – | – |
| C=CC(=O)N1C[C@H]2CC[C@@H]1C[C@@H]2c1ccc2ncnc(Nc3ccc(Oc4cnc5c(c4)ncn5C)c(C)c3F)c2n1 [Example 422] | 0.157 µM | 4.01 µM | 0.0517 µM | ≥ 5 µM | – | – | – | – | – |
| C=CC(=O)N1C[C@H]2CC[C@@H]1C[C@H]2c1ccc2ncnc(Nc3ccc(Oc4cnc5c(c4)ncn5C)c(C)c3F)c2n1 [Example 423] | 0.125 µM | 2.55 µM | 0.0708 µM | ≥ 5 µM | – | – | – | – | – |
| C=CC(=O)N1C[C@H]2CC[C@@H]1[C@H](c1ccc3ncnc(Nc4cc(C)c(Oc5cnc6c(c5)ncn6C)cc4F)c3n1)C2 [Example 424] | 0.405 µM | ≥ 10 µM | 0.0448 µM | ≥ 5 µM | – | – | – | – | – |

| Structure (SMILES) | IC50 (ErbB2 WT; ErbB2 WT enzyme assay) | IC50 (EGFR; EGFR enzyme assay) | IC50 [1, 2] | IC50 (EGFR wild type (EGFR WT); [3]) | efflux ratio at 2 h, 1 µM (BCRP) | IC50 (ErbB2 WT; ErbB2 WT enzyme) | IC50 (EGFR; EGFR enzyme) | IC50 ([1]; ErbB2 YVMA phosphorylation) | IC50 (EGFR wild type (EGFR WT); [4]) |
| --- | --- | --- | --- | --- | --- | --- | --- | --- | --- |
| C=CC(=O)N1C[C@H]2CC[C@@H]1[C@@H](c1ccc3ncnc(Nc4cc(C)c(Oc5cnc6c(c5)ncn6C)cc4F)c3n1)C2 [Example 425] | 0.212 µM | ≥ 10 µM | 0.0505 µM | ≥ 5 µM | – | – | – | – | – |
| C=CC(=O)N1C[C@H]2CC[C@@H]1[C@@H](c1ccc3ncnc(Nc4ccc(Oc5cnc6c(c5)ncn6C)c(C)c4F)c3n1)C2 [Example 427] | 0.104 µM | 2.99 µM | 0.0564 µM | ≥ 5 µM | – | – | – | – | – |
| C=CC(=O)N1[C@H]2CC[C@@H]1[C@H](c1ccc3ncnc(Nc4cc(C)c(Oc5ccn6ncnc6c5)cc4F)c3n1)CC2 [Example 428] | 0.0624 µM | 1.48 µM | 0.0247 µM | 0.954 µM | – | – | – | – | – |
| C=CC(=O)N1[C@H]2CC[C@@H]1[C@H](c1ccc3ncnc(Nc4ccc(Oc5ccn6ncnc6c5)c(C)c4F)c3n1)CC2 [Example 429] | 0.0284 µM | 0.52 µM | 0.0138 µM | 0.447 µM | – | – | – | – | – |
| C=CC(=O)N1CCN(c2ccc3ncnc(Nc4cc(Cl)c(Oc5cnc6c(c5)ncn6C)cc4F)c3n2)C[C@H]1C1CC1 [Example 430] | 0.307 µM | ≥ 10 µM | 0.0382 µM | ≥ 5 µM | – | – | – | – | – |
| C=CC(=O)N1C2CCC1CN(c1ccc3ncnc(Nc4ccc(Oc5ccc6c(c5)ncn6C)c(C)c4F)c3n1)C2 [Example 431] | 0.0449 µM | 0.712 µM | 0.0131 µM | 0.393 µM | – | – | – | – | – |
| C=CC(=O)N1CCN(c2ccc3ncnc(Nc4ccc(Oc5ccc6scnc6c5)c(C)c4)c3n2)CC1(C)C [Example 432] | 0.037 µM | 0.21 µM | 0.0152 µM | 0.281 µM | – | – | – | – | – |
| C=CC(=O)N1CC[C@H]2C[C@@H]1CN2c1ccc2ncnc(Nc3ccc(Oc4ccn5ncnc5c4)c(Cl)c3F)c2n1 [Example 436] | 0.0363 µM | 1.92 µM | 0.459 µM | ≥ 5 µM | – | – | – | – | – |
| C=CC(=O)N1C2CC1CN(c1ccc3ncnc(Nc4ccc(Oc5cnc6c(c5)ncn6C)c(C)c4F)c3n1)C2 [Example 438] | 0.352 µM | ≥ 10 µM | 0.0098 µM | ≥ 5 µM | – | – | – | – | – |
| C=CC(=O)N1CC[C@H]2C[C@@H]1CN2c1ccc2ncnc(Nc3cc(Cl)c(Oc4ccn5ncnc5c4)cc3F)c2n1 [Example 439] | 0.147 µM | ≥ 10 µM | 0.933 µM | ≥ 5 µM | – | – | – | – | – |
| C=CC(=O)N1CCN(c2ccc3ncnc(Nc4cc(Cl)c(Oc5cnc6c(c5)ncn6C)cc4F)c3n2)C[C@@H]1C1CC1 [Example 440] | 0.189 µM | ≥ 10 µM | 0.0428 µM | ≥ 5 µM | – | – | – | – | – |
| C=CC(=O)N1CC2CCC(C1)N2c1ccc2ncnc(Nc3ccc(Oc4ccn5ncnc5c4)c(Cl)c3F)c2n1 [Example 445] | 0.0047 µM | 0.0336 µM | 0.0057 µM | 0.0601 µM | – | – | – | – | – |
| C=CC(=O)N1CCN(c2ccc3ncnc(Nc4ccc(Oc5ccn6ncnc6c5)cc4C(F)(F)F)c3n2)CC1(C)C [Example 448] | 0.37 µM | ≥ 10 µM | 0.0876 µM | 3.44 µM | – | – | – | – | – |
| C=CC(=O)N1CCN(c2ccc3ncnc(Nc4cnc(Oc5ccn6ncnc6c5)c(C)c4)c3n2)CC1(C)C [Example 449] | 0.0919 µM | 7.51 µM | 0.0562 µM | ≥ 5 µM | – | – | – | – | – |
| C=CC(=O)N1CCN(c2ccc3ncnc(Nc4ccc(Oc5cnc6c(c5)ncn6C)c(C)c4F)c3n2)CC12CC2 [Example 450] | 0.0673 µM | 0.48 µM | 0.0098 µM | 1.16 µM | – | – | – | – | – |
| C=CC(=O)N1CCN(c2ccc3ncnc(Nc4ccc(Oc5ccn6ncnc6c5)c(C(F)F)c4)c3n2)CC1(C)C [Example 451] | 0.106 µM | 6.26 µM | 0.0493 µM | 3.34 µM | – | – | – | – | – |
| C=CC(=O)N1CCN(c2ccc3ncnc(Nc4cc(F)c(Oc5ccn6ncnc6c5)cc4F)c3n2)CC1(C)C [Example 453] | 0.147 µM | ≥ 10 µM | 0.0563 µM | ≥ 5 µM | – | – | – | – | – |
| C=CC(=O)N1CC[C@@H]2C[C@H]1CN2c1ccc2ncnc(Nc3cc(Cl)c(Oc4cnc5c(c4)ncn5C)cc3F)c2n1 [Example 456] | 0.711 µM | ≥ 10 µM | 0.253 µM | ≥ 5 µM | – | – | – | – | – |
